Source: patent publication US9725432B2, “Pyrimidine derivatives for the treatment of bacterial diseases” (JANSSEN R&D IRELAND, priority 2012, dated 2017)
≈ marks a conversion by molar mass, not a printed value.

Columns and labels:
Staphylococcus aureus = assay: Antibacterial susceptibility testing: IC90 determination (broth microdilution, resazurin fluorescence); assay type: cell-based; conditions: 90% inhibitory concentration for bacterial growth, Mueller Hinton broth, 35° C., 16-20 hours, strain not given
Description: Preparation of Bacterial Suspensions for Susceptibility Testing
The following bacteria were used: Staphylococcus aureus ATCC 29213, methicillin-resistant Staphylococcus aureus (MRSA) ATCC 700788 and Escherichia coli ATCC 35218. The bacteria used in this study were grown overnight in flasks containing 100 ml Mueller-Hinton broth (Difco cat. nr. 0757-17) in sterile de-ionized water, with shaking, at 37° C. Stocks were store at −70° C. until use.
Bacteria were incubated on a tryptic soy agar plate containing 5% sheep blood (Becton Dickinson cat. nr. 254053) for 18-24 hours at 35° C. in aerobic conditions (first passage). For the second passage, fresh Mueller-Hinton broth is inoculated with 5-10 colonies and grown overnight at 35° C. until turbidity (reaching log-phase) in aerobic conditions is reached. The bacterial suspension is then adjusted to 0.5 McFarland density and further diluted 1:100 in Mueller Hinton broth medium. This is used as inoculum.
Antibacterial Susceptibility Testing: IC90 Determination
MIC assays were performed by the broth microdilution method in a 96-well format (flat-bottom microtitre plates) with a final volume of 0.1 ml Mueller Hinton broth containing two-fold serial dilutions of compounds and inoculated with 5×10^5 CFU/ml of bacteria (standard inoculum size according to CLSI guidelines). Inhibitors are typically varied over the range of 63 to 0.49 μM. The final DMSO concentration in the assay was 1.25% (maximum tolerable DMSO concentration=6%). In the assays where the effect of human serum on the activity of the compounds against S. aureus was tested, human serum was added at a final concentration of 10%. The plates were incubated at 35° C. for 16-20 hours. At the end of incubation the bacterial growth was quantified fluorometrically. For this, resazurin was added to all wells and the plates were re-incubated. The incubation time is dependent on the type of bacteria. A change in color from blue to pink indicated the growth of bacteria. The fluorescence was read in computer-controlled fluorometer (Fluoroskan Ascent FL, Labsystems) at an excitation wavelength 540 nm and an emission wavelength of 590 nm. The % growth inhibition achieved by the compounds was calculated according to standard methods. The IC90 (expressed in μg/ml) was defined as the 90% inhibitory concentration for bacterial growth. A panel of reference compounds were simultaneously tested for QC approval.

Cytotoxicity MTT assay = assay type: cell-based; conditions: human, HelaM cells, concentration that causes 50% reduction in cell viability
Description: Cytotoxicity of the compounds was evaluated using the MTT assay. Human HelaM cells grown in 96-well plates were exposed to serial dilutions of the tested compounds (final volume of 0.2 ml) and incubated for 72 hours at 37° C. and 5% CO2 Inhibitors are typically varied over the range of 25 to 0.8 μM. The final DMSO concentration in the assay is 0.5%. MTT (3-(4,5-Dimethylthiazol-2-yl)-2,5-diphenyltetrazolium bromide, a tetrazole) was added and reduced to purple formazan only in living cells. Solubilization of the formazan crystals was achieved by adding 100 μl 2-propanol. Cell viability was determined by measuring the absorbance of the reduced formazan, giving a purple color, at 540 nm and 690 nm. The absorbance measured at 690 nm was automatically subtracted from the absorbance at 540 nm, to eliminate the effects of non-specific absorption. The percent cytotoxicity achieved by the compounds was calculated according to standard methods. Cytotoxicity is reported as CC50, the concentration that causes a 50% reduction in cell viability.

SMILES | IC90 (Staphylococcus aureus) [µg/mL] | CC50 at 72 h (Cytotoxicity MTT assay) [µg/mL] | melting point [°C]
COc1cccc(-c2cnc(-c3ccncc3)nc2C2CCN(Cc3sccc3C)CC2)c1 [Compound 1] | 8.5 (≈ 18.6 µM) | – | –
C/C=C(\C)CN1CCC(c2nc(-c3ccncc3)ncc2-c2cccc(OC)c2)CC1 [Compound 2] | 13.7 (≈ 33.1 µM) | – | –
COc1cccc(-c2cnc(-c3ccncc3)nc2C2CCN(Cc3cccc(F)c3)CC2)c1 [Compound 3] | 5.59 (≈ 12.3 µM) | > 4.5 | 111 to 114
COc1cccc(-c2cnc(-c3ccncc3)nc2C2CCN(Cc3ccsc3)CC2)c1 [Compound 4] | 12.9 (≈ 29.2 µM) | > 11.1 | 135
COc1cccc(-c2cnc(-c3ccncc3)nc2C2CCN(Cc3cc(Cl)ccc3O)CC2)c1 [Compound 5] | 2.1 (≈ 4.31 µM) | 6.3 (≈ 12.9 µM) | 227 to 228
COc1cccc(-c2cnc(-c3ccncc3)nc2C2CCN(CC(C)(C)C)CC2)c1 [Compound 6] | 1.05 (≈ 2.52 µM) | > 10.5 | 118
Oc1ccccc1CN1CCC(c2nc(-c3cccnc3)ncc2-c2ccccc2)CC1 [Compound 7] | 14.3 (≈ 33.9 µM) | – | –
Cc1cccc(-c2cnc(-c3ccncc3)nc2C2CCN(Cc3ccccc3O)CC2)c1 [Compound 8] | 5.5 (≈ 12.6 µM) | > 4.4 | 149 to 151
COc1cccc(-c2cnc(-c3ccncc3)nc2C2CCN(Cc3ccc(Cl)cc3O)CC2)c1 [Compound 9] | 0.97 (≈ 1.99 µM) | 5.9 (≈ 12.1 µM) | 119 to 123
COc1cccc(-c2cnc(-c3ccncc3)nc2C2CCN(Cc3ccccc3O)CC2)c1 [Compound 10] | 1.68 (≈ 3.71 µM) | 9.9 (≈ 21.9 µM) | 142 to 146
COc1cccc(-c2cnc(-c3ccncc3)nc2C2CCN(CC(C)C)CC2)c1 [Compound 11] | 5.49 (≈ 13.6 µM) | > 10.1 | 105 to 106
COc1cccc(-c2cnc(-c3ccncc3)nc2C2CCN(C3CC3)CC2)c1 [Compound 12] | 5.78 (≈ 15 µM) | > 9.7 | 153 to 156
Cc1cccc(-c2cnc(-c3ccncc3)nc2C2CCN(Cc3cc(Cl)ccc3O)CC2)c1 [Compound 13] | 1.71 (≈ 3.63 µM) | 5.2 (≈ 11 µM) | 180 to 181
Cc1cccc(-c2cnc(-c3ccncc3)nc2C2CCN(Cc3cccc(F)c3)CC2)c1 [Compound 14] | 9.16 (≈ 20.9 µM) | > 11 | 195 to 196
Cc1cccc(-c2cnc(-c3ccncc3)nc2C2CCN(CC(C)(C)C)CC2)c1 [Compound 15] | 1.49 (≈ 3.72 µM) | > 10.1 | 123 to 127
COc1cccc(-c2cnc(-c3ccncc3)nc2C2CCN(Cc3ccccc3)CC2)c1 [Compound 16] | 6.92 (≈ 15.9 µM) | > 11 | 174
COc1cccc(-c2cnc(-c3ccncc3)nc2C2CCN(CC3CCCCC3)CC2)c1 [Compound 17] | 13.4 (≈ 30.2 µM) | > 11.1 | 130
COc1cccc(-c2cnc(-c3ccncc3)nc2C2CCN(Cc3ccco3)CC2)c1 [Compound 18] | 13 (≈ 30.5 µM) | > 10.7 | 120
COc1cccc(-c2cnc(-c3ccncc3)nc2C2CCN(Cc3cccs3)CC2)c1 [Compound 19] | 5.57 (≈ 12.6 µM) | > 11.1 | 130
COc1cccc(-c2cnc(-c3ccncc3)nc2C2CCN(C(=O)C(C)Oc3ccccc3)CC2)c1 (stereo not shown) [Compound 20] | 7.15 (≈ 14.5 µM) | 8.1 (≈ 16.4 µM) | –
COc1cccc(-c2cnc(-c3ccncc3)nc2N2CCN(CC(C)(C)C)CC2)c1 [Compound 21] | 0.39 (≈ 0.934 µM) | 5.9 (≈ 14.1 µM) | 117 to 120
COc1cccc(-c2cnc(-c3ccncc3)nc2N2CCC(NC(=O)C(C)Oc3ccccc3)CC2)c1 (stereo not shown) [Compound 22] | 5.16 (≈ 10.1 µM) | 8.5 (≈ 16.7 µM) | 106 to 108

SMILES | IC90 (Staphylococcus aureus) [µg/mL] | CC50 at 72 h (Cytotoxicity MTT assay) [µg/mL] | melting point [°C]
COc1cccc(-c2cnc(-c3ccccn3)nc2C2CCN(Cc3cc(Cl)ccc3O)CC2)c1 [Compound 23] | 7.37 (≈ 15.1 µM) | 4.4 (≈ 9.03 µM) | 165 to 166
COc1cccc(-c2cnc(-c3cccnc3)nc2C2CCN(CC(C)(C)C)CC2)c1 [Compound 24] | 1.68 (≈ 4.03 µM) | > 11.4 | 222 to 224
COc1cccc(-c2cnc(-c3ccncc3)nc2C2CCN(C(=O)C(C)(C)C)CC2)c1 [Compound 25] | 3.27 (≈ 7.59 µM) | > 10.8 | 165
COc1cccc(-c2cnc(-c3ccncc3)nc2N2CCC(c3ccccc3)CC2)c1 [Compound 26] | 7.51 (≈ 17.8 µM) | 5.7 (≈ 13.5 µM) | 157 to 159
COc1cccc(-c2cnc(-c3cccnc3)nc2C2CCN(C(=O)C(C)Oc3ccccc3)CC2)c1 (stereo not shown) [Compound 27] | 9.1 (≈ 18.4 µM) | 7.1 (≈ 14.4 µM) | 138 to 140
COc1cccc(-c2cnc(-c3ccncc3)nc2C2CCN(Cc3cccc(C(F)(F)F)c3)CC2)c1 [Compound 28] | 5.28 (≈ 10.5 µM) | 4.7 (≈ 9.32 µM) | 156
COc1cccc(-c2cnc(-c3ccncc3)nc2C2CCN(Cc3ccc(F)cc3)CC2)c1 [Compound 29] | 3.45 (≈ 7.59 µM) | 8.5 (≈ 18.7 µM) | 152
COc1cccc(-c2cnc(-c3ccncc3)nc2NC2CCN(CC(C)(C)C)CC2)c1 [Compound 30] | 5.19 (≈ 12 µM) | 8.8 (≈ 20.4 µM) | 137 to 138
COc1cccc(-c2cnc(-c3ccncc3)nc2C2CCN(Cc3cccc(C#N)c3)CC2)c1 [Compound 31] | 7.32 (≈ 15.9 µM) | 4.2 (≈ 9.1 µM) | 140
COc1cccc(-c2cnc(-c3ccncc3)nc2C2CCN(Cc3ccc(F)cc3F)CC2)c1 [Compound 32] | 3.27 (≈ 6.92 µM) | 5.5 (≈ 11.6 µM) | 138
COc1cccc(-c2cnc(-c3ccncc3)nc2C2CCN(Cc3cccc(C)c3)CC2)c1 [Compound 33] | 13.2 (≈ 29.2 µM) | 7.6 (≈ 16.9 µM) | 160
COc1cccc(-c2cnc(-c3ccncc3)nc2C2CCN(Cc3ccc(C#N)cc3)CC2)c1 [Compound 34] | 6.99 (≈ 15.1 µM) | 8.7 (≈ 18.8 µM) | 168
COc1cccc(-c2cnc(-c3ccncc3)nc2C2CCN(Cc3ccc(C)cc3)CC2)c1 [Compound 35] | 13.3 (≈ 29.5 µM) | 7.7 (≈ 17.1 µM) | 141
COc1ccc(-c2cnc(-c3ccncc3)nc2C2CCN(CC(C)(C)C)CC2)cc1 [Compound 36] | 2.98 (≈ 7.15 µM) | > 10.5 | 154 to 156
CN(C)c1ncc(-c2ccccc2F)c(C2CCN(CC(C)(C)C)CC2)n1 [Compound 51] | 13.4 (≈ 36.3 µM) | 7.8 (≈ 21.1 µM) | –
CN(C)c1ncc(-c2cccc(Cl)c2)c(C2CCN(CC(C)(C)C)CC2)n1 [Compound 52] | 1.28 (≈ 3.31 µM) | 6.7 (≈ 17.3 µM) | –
COc1ccc(-c2cnc(N(C)C)nc2C2CCN(CC(C)(C)C)CC2)cc1 [Compound 53] | 5.47 (≈ 14.3 µM) | 7.5 (≈ 19.6 µM) | –
COc1cccc(-c2cnc(-c3ccncc3)nc2C2CCN(CC(F)(F)F)CC2)c1 [Compound 55] | 0.39 (≈ 0.91 µM) | 6.3 (≈ 14.7 µM) | –
CC(C)(C)CN1CCCC(c2nc(-c3ccncc3)ncc2-c2cccc(C#N)c2)C1 (stereo not shown) [Compound 61] | > 25.9 | > 10.3 | –
COc1cccc(-c2cnc(-c3ccncc3)nc2C2CCN(CC(C)(F)F)CC2)c1 [Compound 70] | 0.64 (≈ 1.51 µM) | 6.7 (≈ 15.8 µM) | –
COc1cccc(-c2cnc(-c3ccc(F)cc3)nc2C2CCN(CC(F)(F)F)CC2)c1 [Compound 71] | < 0.22 | – | –
CC1(CN2CCC(c3nc(-c4ccncc4)ncc3-c3cccc(C#N)c3)CC2)COC1 [Compound 72] | 25.9 (≈ 61 µM) | – | –
